# Like-named read-outs stand apart in the source and are kept apart here.
# Key:
# [1] = tested on: NRF2 mRNA and NRF2 target gene mRNA; assay: RT-qPCR of NRF2 mRNA and NRF2 downstream targets in KYSE70 cells; assay type: cell-based; details: 24 or 48 hours, PYR 10 μM, analogs 1 μM, MTX and PEM 0.1 μM
# Description: (§1) qRT-PCR: Total RNA was extracted using PureLink RNA kit following the manufacturers protocol. Primers for qPCR were designed using the National Center for Biotechnology Information's (NCBI) Primer-BLAST platform. For primer sequences, see Table 2. RNA was quantified using a Nanodrop One (Thermo, Waltham, Mass.), and the reverse transcription reaction was performed using 2 μg of RNA with the iSCRIPT Clear kit with DNAse (Biorad, 170-8891). For the qRT-PCR, PowerUP SYBR Green (Thermo, A25741) was used, and data were analyzed on an AB QuantStudio 6 Flex Real Time PCR machine (Applied Biosystems, Foster City, Calif.). ΔCT values were normalized to housekeeping gene RPL13a and then normalized to DMSO for final ΔΔCT value.
# [2] = tested on: NRF2 activity in H1299-NQO1-YFP cells; assay: NRF2 activity reporter IC50 in H1299-NQO1-YFP cells vs NRF2 pathway activators (IncuCyte, YFP/mCherry); assay type: cell-based; details: for suppression of NRF2 activity (in words): IC50 experiments at the doses tested
# Description: Readings were taken every 2 hours for at least 24 hours. […] Readings were also taken every 2 hours for 96 hours in and IncuCyte S3.
# (§2) YFP total intensity (correlating to NRF2 activity) was normalized to NLS-mCherry (cell number) total intensity to give a ratio (YFP/mCherry). Ratios at one time point at least 24 hours post compounds were added were used. These numbers were then plotted in Graphpad Prism to calculate IC50s. […] From three biological replicates, percent confluence was used for proliferation assays to calculate IC50s, calculations performed using Graphpad Prism.
# KYSE70 cells [3] = assay: Proliferation IC50 (percent confluence, IncuCyte) in KYSE70 cells; assay type: cell-based; details: Homo sapiens, read-out: proliferation IC50
# Description: as §2, with “IncuCyte and IC50 calculations: […] […] Readings were taken every 2 hours for at least 24 hours. […] Readings were also taken every 2 hours for 96 hours in and IncuCyte S3. YFP total” for “YFP total”
# AXIN2 and CK1γ1 mRNA = assay: qRT-PCR of AXIN2 and CK1γ1 mRNA (not NRF2 target genes) in KYSE70 cells; assay type: cell-based; details: KYSE70, 48 hours; 1 μM 115, 0.1 μM MTX, 0.1 μM PEM
# Text: Single experiment shown. AXIN2 and CK1γ1 were done in same experiment, but separated for discussion. Error bars are SD and * represents p-value <0.05.
# as §1
# NRF2 protein [4] = assay: Western blot analysis of NRF2 protein abundance and downstream targets in cell lines; assay type: cell-based; details: for NRF2 protein abundance: 24-48 hours, PYR 10 μM, analogs 1 μM (104 in HEK293T 10 μM), MTX and PEM 0.1 μM, CG 10 μM
# Description: (§3) Western Blots: KYSE70, HEK293T cells were plated and 24 hours later treated with compounds (see figure legends for details). Either at 24 or 48 hours later, cells were scrapped in RIPA buffer (0.2% deoxycholate, 0.1% SDS, 1% NP40, 150 mM NaCl, 50 mM Tris pH 7.4, 2 mM EDTA) supplemented with protease and phosphatase inhibitors, cleared at 14000×g for 15 minutes at 4° C., and supernatants were quantified by BCA assay (Pierce, 23225). Protein samples (20 μg) were prepared with 1×LDS buffer with 100 mM DTT, ran on NuPAGE 4-12% Bis-tris gels, and transferred onto a […] nitrocellulose membrane (Thermo, 88018). All blots were blocked in 5% milk in TBST for 30 minutes. After incubation of the primary antibody overnight at 4° C. and washed three times with 1×TBST, blots were incubated with LI-COR secondary antibodies for 1-2 hours, washed in 1×TBST thrice, and then imaged via a LI-COR Odyssey instrument (Li-COR, Lincoln, Nebr.).
# NRF2 protein [5] = assay: as above; assay type: cell-based; details: for NRF2 protein levels with MLN induced stabilization: H1299, 10 μM PYR or 1 μM 115 with 0.5 μM MLN, 24 hours
# [6] = tested on: mutant KEAP1 activation of NRF2 pathway in H1299-NQO1-YFP cells; assay: H1299-NQO1-YFP reporter cells transfected with mutant KEAP1; assay type: cell-based; details: 10 μM PYR, mutant KEAP1 overexpressed
# Description: Data is of 3 independent experiments, error bars are SD.
# H1299-NQO1-YFP cells were transfected with WT, R320Q, R470C, or V115F FLAG-KEAP1 constructs using Lipofectamine 2000. […] Calculations are detailed below. This was performed in biological triplicate and error bars are SD.
# H1299 cells = assay: Proliferation IC50 (percent confluence, IncuCyte) in H1299 cells; assay type: cell-based; details: Homo sapiens, read-out: proliferation IC50
# Description: as §2, with “IncuCyte and IC50 calculations: […] […] Readings were taken every 2 hours for at least 24 hours. […] Readings were also taken every 2 hours for 96 hours in and IncuCyte S3. YFP total” for “YFP total”
# DHFR protein = target: T1, DHFR protein (Homo sapiens, UniProt P00374); assay: Western blot for DHFR protein stabilization; assay type: cell-based; details: western blot at the doses used
# T1 construct: endogenous in cells; host or cells: KYSE70, HEK293T, H1299, A549, OE21, PC-9
# T1 sequence (P00374 1-187): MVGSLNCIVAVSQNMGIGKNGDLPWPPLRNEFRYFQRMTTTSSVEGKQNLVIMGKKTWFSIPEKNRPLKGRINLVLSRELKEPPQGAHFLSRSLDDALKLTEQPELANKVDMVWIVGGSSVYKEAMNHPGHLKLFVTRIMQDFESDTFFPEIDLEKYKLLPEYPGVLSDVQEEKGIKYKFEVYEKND
# Description: as §3
# [7] = Mouse study on analog 115: pharmacokinetic profile and clinical observations; details: for concentration at 7 h: female, CD-1, mouse, plasma
# Description: Two tests were conducted, on for a single oral dose of 10 mg/kg and for an intravenous 2 mg/kg dose in female CD-1 mice (n=3 for each group).
# Mouse study with Analog 115: All mouse work was performed by Paraza Pharma, Inc. All pertinent information and methods are listed in FIG. 17.
# human DHFR (hDHFR) = target: T2, human DHFR (hDHFR) (Homo sapiens, UniProt P00374); assay: Human DHFR enzymatic assay; assay type: biochemical; details: in vitro enzymatic assay, hDHFR 3E-3 Units; read-out: hDHFR3E-3 Units IC50 μM + SEM
# T2 construct: purchased
# T2 sequence (P00374 1-187): T1 sequence (P00374 1-187)
# KYSE70 cells [8] = assay: Metabolomics analysis of KYSE70 cells; assay type: cell-based; details: KYSE70, 48 hours; 10 μM PYR, 1 μM 115, 0.1 μM MTX
# Description: After 48 hours, 1 ml of media was aliquoted into a clean Eppendorf and kept on ice, and the rest of the media was removed from these dishes. The cells were then washed in water twice and then scrapped in ice cold methanol.
# [9] = Table 3, activator CDDO 100 nM, H1299-NQO1-YFP cells, read-out: CDDO 100 nM IC50 μM ± SEM
# [10] = Table 3, activator SULF 2 μM, H1299-NQO1-YFP cells, read-out: SULF 2 μM IC50 μM ± SEM
# [11] = Table 3, average over activators, H1299-NQO1-YFP cells, read-out: Avg IC50
# [12] = read-out: PRL295 5 μM IC50 μM ± SEM, Table 3, activator PRL295 5 μM, H1299-NQO1-YFP cells
# [13] = read-out: PRL295 5 μM IC50 AM ± SEM, Table 1, activator PRL295 5 μM, H1299-NQO1-YFP cells
# [14] = Table 1 and text, average over activators CDDO, PRL295, SULF, H1299-NQO1-YFP cells, read-out: Avg IC50
# [15] = Table 6 NRF2 inhibitors, read-out: Avg IC50
"IC50 [2, 9] [µM]","IC50 [2, 10] [µM]","IC50 [2, 11] [µM]","IC50 [2, 12] [µM]","IC50 [2, 14] [µM]","IC50 [2, 15] [µM]",Structure (SMILES),NRF2 mRNA and NRF2 target gene mRNA [1],"IC50 (KYSE70 cells [3]; KYSE-70, 96 h) [nM]",AXIN2 and CK1γ1 mRNA (AXIN2 and CK1γ1 mRNA),NRF2 protein abundance (NRF2 protein [4]; western blot),"IC50 [2, 13] [µM]",NRF2 protein levels with MLN induced stabilization (NRF2 protein [5]),DHFR protein stabilization (DHFR protein),suppression of NRF2 activity (in words) [2],other results
0.0008,0.0358 ± 0.0031,0.0202,0.024 ± 0.0024,,,"CN(Cc1cnc2nc(N)nc(N)c2n1)c1ccc(C(=O)N[C@@H](CCC(=O)O)C(=O)O)cc1 [MTX, Methotrexate, reference compound]",decreased,12.4,decreased AXIN2 and CK1γ1 mRNA,decreased,,,,,
,,,,,,"Nc1nc(=O)c2c([nH]1)NCC(CNc1ccc(C(=O)N[C@@H](CCC(=O)O)C(=O)O)cc1)N2C=O (mixture of isomers) [FA, Folinic Acid]",,,,,,,,,"stabilization of NRF2 by FA alone (NRF2 protein [5]; H1299, 10 ng/ml FA, 24 hr): no stabilization of NRF2"
,,,,> 20,> 20,"CCc1nc(N)ncc1-c1ccc(Cl)cc1 [WCDD101, 5-(4-chlorophenyl)-4-ethylpyrimidin-2-amine]",,,,,,,DHFR was not stabilized,did not have any effect on NRF2 activity,
,,,,0.05,0.057,"CCc1nc(N)nc(N)c1-c1cccc(C(F)(F)F)c1 [WCDD115, 6-ethyl-5-(3-(trifluoromethyl)phenyl)pyrimidine-2,4-diamine]",,,some minimal effect on AXIN2,decrease NRF2 protein abundance,0.06 ± 0.001,Neither PYR nor 115 can decrease NRF2 protein levels,,,"concentration at 7 h ([7]; iv, 2 mg/kg): 76.4 ng/mL; concentration at 7 h ([7]; po, 10 mg/kg): ~450 ng/mL; plasma level at 24 hours post dosing ([7]; oral 10 mg/kg or IV 2 mg/kg, 24 hours post dosing): unquantifiable; IC50 (H1299 cells; NCI-H1299, H1299, 96-hour time point, initial experiment): 145 nM; IC50 ([2]; Table 1, activator CDDO 0.1 μM, H1299-NQO1-YFP cells, read-out: CDDO 0.1 μM IC50 μM ± SEM): 0.052 ± 0.0001 µM; IC50 ([2]; Table 1, activator SULF 2 μM, H1299-NQO1-YFP cells, read-out: SULF 2 μM IC50 μM ± SEM): 0.057 ± 0.003 µM; potency in NRF2 suppression compared to PYR ([2]; relative to PYR): 10 fold; IC50 ([2]; unit inferred, read-out: IC50): 0.05 µM; IC50 (KYSE70 cells [3]; KYSE-70, KYSE70, 96-hour time point, one or two experiments): 31.9 nM; IC50 (human DHFR (hDHFR)): 0.144 ± 0.0224 µM; reduction potential in the form of glutathione ratios (KYSE70 cells [8]): decreased"
0.334 ± 0.03,0.382 ± 0.0374,0.276,0.112 ± 0.0068,,,"Nc1nc2[nH]cc(CCc3ccc(C(=O)N[C@@H](CCC(=O)O)C(=O)O)cc3)c2c(=O)[nH]1 [PEM, reference compound]",did not,,decreased AXIN2 and CK1γ1 mRNA,did not,,,,only partial suppression of NRF2 activity,

Structure (SMILES),"IC50 [2, 9] [µM]","IC50 [2, 10] [µM]","IC50 [2, 11] [µM]","IC50 [2, 12] [µM]","IC50 [2, 14] [µM]","IC50 [2, 15] [µM]",NRF2 mRNA and NRF2 target gene mRNA [1],"IC50 (KYSE70 cells [3]; KYSE-70, 96 h) [nM]",AXIN2 and CK1γ1 mRNA (AXIN2 and CK1γ1 mRNA),NRF2 protein abundance (NRF2 protein [4]; western blot),"IC50 [2, 13] [µM]",NRF2 protein levels with MLN induced stabilization (NRF2 protein [5]),DHFR protein stabilization (DHFR protein),suppression of NRF2 activity (in words) [2],other results
"CCc1nc(N)nc(N)c1-c1ccc(Cl)cc1 [PYR, 5-(4-chlorophenyl)-6-ethylpyrimidine-2,4-diamine, reference compound]",,,,0.873 ± 0.032,,,abrogated NRF2 mRNA and NRF2 target gene mRNA decrease,1240,,decreases NRF2 protein abundance,0.873 ± 0.032,Neither PYR nor 115 can decrease NRF2 protein levels,DHFR protein was stabilized,,"mutant KEAP1 activation of the NRF2 pathway [6]: repressed mutant KEAP1 activation of the pathway; IC50 (H1299 cells; NCI-H1299, 96 h): 3830 nM; IC50 ([2]; read-out: Avg IC50 μM, Table 1 and text, average over activators CDDO, PRL295, SULF, H1299-NQO1-YFP cells): 1.2 µM; IC50 ([2]; read-out: Avg IC50 μM, Table 3, average over activators, H1299-NQO1-YFP cells): 1.23 µM; IC50 ([2]; read-out: Avg IC50 μM, Table 6 NRF2 inhibitors): 1.23 µM; IC50 ([2]; read-out: CDDO 0.1 μM IC50 μM ± SEM, Table 1, activator CDDO 0.1 μM, H1299-NQO1-YFP cells): 1.25 ± 0.024 µM; IC50 ([2]; read-out: CDDO 100 nM IC50 μM ± SEM, Table 3, activator CDDO 100 nM, H1299-NQO1-YFP cells): 1.25 ± 0.024 µM; IC50 ([2]; read-out: SULF 2 μM IC50 μM ± SEM, Table 1, activator SULF 2 μM, H1299-NQO1-YFP cells): 1.59 ± 0.0448 µM; IC50 ([2]; read-out: SULF 2 μM IC50 μM ± SEM, Table 3, activator SULF 2 μM, H1299-NQO1-YFP cells): 1.59 ± 0.0448 µM; NRF2 protein on co-treatment with Bortezomib (NRF2 protein [4]; BORT 0.04 μM co-treatment, HEK293T, H1299): prevented PYR from decreasing NRF2; expression of downstream NRF2 target proteins (NRF2 protein [4]; western blot, PYR treatment): decreased expression of downstream NRF2 target proteins"

# — US20220289686A1, “COMPOSITIONS OF NRF2 INHIBITING AGENTS AND METHODS OF USE THEREOF” (Washington University, priority 2021, published 2022)
